The text below walks through data of ChEMBL document CHEMBL4321812, “Structure-based rational design of staurosporine-based fluorescent probe with broad-ranging kinase affinity for kinase panel application” (Bioorg Med Chem Lett, 2019).

The target in test [1] is Testis-specific serine/threonine-protein kinase 1 (Homo sapiens, UniProt Q9BXA7). Nature of the test: Binding affinity to recombinant full-length N-terminal His-FLAG-GST-tagged TSSK1B (unknown origin) expressed in baculovirus infected Sf9 insect cells incubated for 1 hr by TR-FRET assay.
Chain of Testis-specific serine/threonine-protein kinase 1 (Q9BXA7 whole entry, the tested form may be a part): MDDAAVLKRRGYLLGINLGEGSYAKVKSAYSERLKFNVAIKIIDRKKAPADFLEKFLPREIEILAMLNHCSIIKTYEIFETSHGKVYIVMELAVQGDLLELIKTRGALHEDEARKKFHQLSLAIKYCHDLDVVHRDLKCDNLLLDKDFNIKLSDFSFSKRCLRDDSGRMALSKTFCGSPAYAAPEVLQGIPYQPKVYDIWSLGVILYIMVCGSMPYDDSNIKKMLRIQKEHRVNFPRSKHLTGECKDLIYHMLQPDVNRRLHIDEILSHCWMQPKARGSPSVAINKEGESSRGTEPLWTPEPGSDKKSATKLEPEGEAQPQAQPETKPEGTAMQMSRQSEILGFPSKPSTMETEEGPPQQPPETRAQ
For another test, the target named is Ephrin type-A receptor 3 (Homo sapiens, UniProt P29320). Nature of the test: Binding affinity to recombinant N-terminal His-FLAG-GST-tagged EPHA3 (unknown origin) (579 to 983 residues) expressed in baculovirus infected Sf9 insect cells incubated for 1 hr by TR-FRET assay.
Test [2] addresses Serine/threonine-protein kinase SIK1 (Homo sapiens, UniProt P57059). The test can be described thus: Binding affinity to recombinant full-length N-terminal His-FLAG-tagged SIK1 (unknown origin) expressed in baculovirus infected Sf9 insect cells incubated for 1 hr by TR-FRET assay.
Test [3] has as its target cAMP-dependent protein kinase catalytic subunit gamma (Homo sapiens, UniProt P22612). The test can be described thus: Binding affinity to recombinant full-length N-terminal His-FLAG-GST-tagged PRKACG (unknown origin) expressed in baculovirus infected Sf9 insect cells incubated for 1 hr by TR-FRET assay.
Test [4] addresses Serine/threonine-protein kinase TBK1 (Homo sapiens, UniProt Q9UHD2). The test can be described thus: Binding affinity to recombinant human full length N-terminal GST-tagged TBK1 expressed in baculovirus expression system using CKtide as substrate incubated for 1 hr by TR-FRET assay.
Test [5] deals with cAMP-dependent protein kinase catalytic subunit beta (Homo sapiens, UniProt P22694). The test can be described thus: Binding affinity to recombinant full-length N-terminal His-FLAG-GST-tagged PRKACB (unknown origin) expressed in baculovirus infected Sf9 insect cells incubated for 1 hr by TR-FRET assay.
In test [6] the target is Serine/threonine-protein kinase Sgk1 (Homo sapiens, UniProt O00141). Nature of the test: Binding affinity to recombinant full-length N-terminal His-FLAG-GST-tagged SGK1 (unknown origin) (60 to 431 residues) expressed in baculovirus infected Sf9 insect cells incubated for 1 hr by TR-FRET assay.
Chain of Serine/threonine-protein kinase Sgk1 (O00141 whole entry, the tested form may be a part, canonical isoform): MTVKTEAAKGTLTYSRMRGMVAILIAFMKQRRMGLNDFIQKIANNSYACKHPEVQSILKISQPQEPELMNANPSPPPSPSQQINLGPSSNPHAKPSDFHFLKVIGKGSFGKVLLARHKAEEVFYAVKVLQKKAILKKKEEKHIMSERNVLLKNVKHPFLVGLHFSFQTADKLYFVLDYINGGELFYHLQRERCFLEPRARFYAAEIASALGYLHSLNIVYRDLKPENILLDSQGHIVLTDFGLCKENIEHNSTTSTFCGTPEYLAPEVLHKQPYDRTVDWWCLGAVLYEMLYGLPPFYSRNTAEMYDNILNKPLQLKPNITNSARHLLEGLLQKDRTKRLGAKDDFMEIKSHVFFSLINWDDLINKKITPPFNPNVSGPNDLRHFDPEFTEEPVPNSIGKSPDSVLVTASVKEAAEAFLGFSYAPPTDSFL
The target of test [7] is Phosphorylase b kinase gamma catalytic chain, liver/testis isoform (Homo sapiens, UniProt P15735). The test can be described thus: Binding affinity to recombinant full-length N-terminal His-FLAG-GST-tagged PHKG2 (unknown origin) expressed in baculovirus infected Sf9 insect cells incubated for 1 hr by TR-FRET assay.
Chain of Phosphorylase b kinase gamma catalytic chain, liver/testis isoform (P15735 whole entry, canonical isoform): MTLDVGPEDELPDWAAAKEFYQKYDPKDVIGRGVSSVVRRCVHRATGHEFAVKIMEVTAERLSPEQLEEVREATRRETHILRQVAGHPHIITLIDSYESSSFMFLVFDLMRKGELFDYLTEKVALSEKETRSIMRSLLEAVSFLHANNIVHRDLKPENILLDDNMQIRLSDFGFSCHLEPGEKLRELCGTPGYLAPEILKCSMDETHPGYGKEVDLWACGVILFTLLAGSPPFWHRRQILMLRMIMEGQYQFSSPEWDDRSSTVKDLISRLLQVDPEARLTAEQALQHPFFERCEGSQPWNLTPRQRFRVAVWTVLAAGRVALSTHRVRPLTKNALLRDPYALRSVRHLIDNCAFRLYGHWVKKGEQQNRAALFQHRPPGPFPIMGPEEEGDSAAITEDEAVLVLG
Test [8] addresses Tyrosine-protein kinase Lyn (Homo sapiens, UniProt P07948). Nature of the test: Binding affinity to recombinant full-length N-terminal His-FLAG-GST-tagged LYN (unknown origin) expressed in baculovirus infected Sf9 insect cells incubated for 1 hr by TR-FRET assay.
Test [9] addresses Serine/threonine-protein kinase 4 (Homo sapiens, UniProt Q13043). Nature of the test: Binding affinity to recombinant full-length N-terminal His-FLAG-GST-tagged STK4 (unknown origin) expressed in baculovirus infected Sf9 insect cells incubated for 1 hr by TR-FRET assay.
Test [10] deals with Tyrosine-protein kinase Yes (Homo sapiens, UniProt P07947). Nature of the test: Binding affinity to recombinant full-length N-terminal His-FLAG-GST-tagged YES1 (unknown origin) expressed in baculovirus infected Sf9 insect cells incubated for 1 hr by TR-FRET assay.
Test [11] addresses Protein kinase C zeta type (Homo sapiens, UniProt Q05513). Nature of the test: Binding affinity to recombinant full-length N-terminal His-FLAG-GST-tagged PRKCZ (unknown origin) expressed in baculovirus infected Sf9 insect cells incubated for 1 hr by TR-FRET assay.
In test [12] the target is Calcium/calmodulin-dependent protein kinase type II subunit gamma (Homo sapiens, UniProt Q13555). The test can be described thus: Binding affinity to recombinant full-length N-terminal His-FLAG-GST-tagged CAMK2G (unknown origin) expressed in baculovirus infected Sf9 insect cells incubated for 1 hr in presence of calmodulin by TR-FRET assay.
Chain of Calcium/calmodulin-dependent protein kinase type II subunit gamma (Q13555 whole entry): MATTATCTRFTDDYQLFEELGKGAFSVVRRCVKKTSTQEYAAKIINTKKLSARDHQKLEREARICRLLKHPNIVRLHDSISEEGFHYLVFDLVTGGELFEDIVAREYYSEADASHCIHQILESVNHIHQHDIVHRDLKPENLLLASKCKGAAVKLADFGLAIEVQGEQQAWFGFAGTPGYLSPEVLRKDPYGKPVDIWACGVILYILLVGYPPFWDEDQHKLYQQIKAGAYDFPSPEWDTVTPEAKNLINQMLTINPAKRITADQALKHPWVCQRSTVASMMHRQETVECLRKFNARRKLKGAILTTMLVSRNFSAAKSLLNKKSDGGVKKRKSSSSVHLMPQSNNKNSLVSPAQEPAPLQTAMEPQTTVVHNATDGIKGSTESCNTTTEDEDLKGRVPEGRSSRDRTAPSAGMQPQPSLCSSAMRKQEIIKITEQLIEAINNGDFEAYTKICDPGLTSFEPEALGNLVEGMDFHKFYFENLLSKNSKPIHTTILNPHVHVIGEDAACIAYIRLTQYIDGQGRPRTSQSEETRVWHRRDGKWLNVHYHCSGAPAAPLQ
Test [13] in a line: Binding affinity to recombinant human full-length N-terminal […] MKNK1 T334D mutant expressed in baculovirus expression system using RS peptide as substrate incubated for 1 hr by TR-FRET assay.
The target of the next test is Rhodopsin kinase GRK1 (Homo sapiens, UniProt Q15835). The test can be described thus: Binding affinity to recombinant full-length N-terminal His-FLAG-GST-tagged GRK1 (unknown origin) expressed in baculovirus infected Sf9 insect cells incubated for 1 hr by TR-FRET assay.
Chain of Rhodopsin kinase GRK1 (Q15835 whole entry, the tested form may be a part): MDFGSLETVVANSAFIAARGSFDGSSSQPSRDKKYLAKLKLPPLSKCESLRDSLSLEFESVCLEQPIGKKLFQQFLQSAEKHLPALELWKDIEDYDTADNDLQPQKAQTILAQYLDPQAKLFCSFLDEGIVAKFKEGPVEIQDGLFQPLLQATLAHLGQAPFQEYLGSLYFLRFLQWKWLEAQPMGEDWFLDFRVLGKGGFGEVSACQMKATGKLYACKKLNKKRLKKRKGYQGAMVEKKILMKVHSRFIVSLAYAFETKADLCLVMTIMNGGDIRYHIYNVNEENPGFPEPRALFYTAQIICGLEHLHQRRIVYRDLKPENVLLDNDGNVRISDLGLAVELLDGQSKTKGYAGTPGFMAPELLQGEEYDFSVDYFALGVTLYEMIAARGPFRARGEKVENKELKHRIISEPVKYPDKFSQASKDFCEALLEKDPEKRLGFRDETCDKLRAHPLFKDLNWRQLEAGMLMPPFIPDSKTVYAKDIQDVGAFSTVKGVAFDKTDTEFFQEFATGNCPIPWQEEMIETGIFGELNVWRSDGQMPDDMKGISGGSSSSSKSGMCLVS
A further test has as its target Myosin-IIIb (Homo sapiens, UniProt Q8WXR4). The test can be described thus: Binding affinity to recombinant full-length N-terminal His-FLAG-GST-tagged MYO3B (unknown origin) (1 to 362 residues) expressed in baculovirus infected Sf9 insect cells incubated for 1 hr by TR-FRET assay.
Test [14] has as its target Death-associated protein kinase 2 (Homo sapiens, UniProt Q9UIK4). The test can be described thus: Binding affinity to recombinant full-length N-terminal His-FLAG-GST-tagged DAPK2 (unknown origin) expressed in baculovirus infected Sf9 insect cells incubated for 1 hr by TR-FRET assay.
For test [15], the target named is Serine/threonine-protein kinase PAK 4 (Homo sapiens, UniProt O96013). The test can be described thus: Binding affinity to recombinant human full-length N-terminal GST-tagged PAK4 expressed in baculovirus expression system using SGKtide as substrate incubated for 1 hr by TR-FRET assay.
The target of test [16] is High affinity nerve growth factor receptor (Homo sapiens, UniProt P04629). Nature of the test: Binding affinity to recombinant full-length N-terminal His-FLAG-GST-tagged NTRK1 (unknown origin) (436 to 790 residues) expressed in baculovirus infected Sf9 insect cells incubated for 1 hr by TR-FRET assay.
Test [17] concerns the target MAP/microtubule affinity-regulating kinase 4 (Homo sapiens, UniProt Q96L34). Nature of the test: Binding affinity to recombinant full-length N-terminal His-FLAG-tagged MARK4 (unknown origin) expressed in baculovirus infected Sf9 insect cells incubated for 1 hr by TR-FRET assay.
The target of test [18] is Mitogen-activated protein kinase kinase kinase 9 (Homo sapiens, UniProt P80192). The test can be described thus: Binding affinity to recombinant N-terminal His-FLAG-GST-tagged MAP3K9 (unknown origin) (110 to 422 residues) expressed in baculovirus infected Sf9 insect cells incubated for 1 hr by TR-FRET assay.
Chain of Mitogen-activated protein kinase kinase kinase 9 (P80192 whole entry, the tested form may be a part): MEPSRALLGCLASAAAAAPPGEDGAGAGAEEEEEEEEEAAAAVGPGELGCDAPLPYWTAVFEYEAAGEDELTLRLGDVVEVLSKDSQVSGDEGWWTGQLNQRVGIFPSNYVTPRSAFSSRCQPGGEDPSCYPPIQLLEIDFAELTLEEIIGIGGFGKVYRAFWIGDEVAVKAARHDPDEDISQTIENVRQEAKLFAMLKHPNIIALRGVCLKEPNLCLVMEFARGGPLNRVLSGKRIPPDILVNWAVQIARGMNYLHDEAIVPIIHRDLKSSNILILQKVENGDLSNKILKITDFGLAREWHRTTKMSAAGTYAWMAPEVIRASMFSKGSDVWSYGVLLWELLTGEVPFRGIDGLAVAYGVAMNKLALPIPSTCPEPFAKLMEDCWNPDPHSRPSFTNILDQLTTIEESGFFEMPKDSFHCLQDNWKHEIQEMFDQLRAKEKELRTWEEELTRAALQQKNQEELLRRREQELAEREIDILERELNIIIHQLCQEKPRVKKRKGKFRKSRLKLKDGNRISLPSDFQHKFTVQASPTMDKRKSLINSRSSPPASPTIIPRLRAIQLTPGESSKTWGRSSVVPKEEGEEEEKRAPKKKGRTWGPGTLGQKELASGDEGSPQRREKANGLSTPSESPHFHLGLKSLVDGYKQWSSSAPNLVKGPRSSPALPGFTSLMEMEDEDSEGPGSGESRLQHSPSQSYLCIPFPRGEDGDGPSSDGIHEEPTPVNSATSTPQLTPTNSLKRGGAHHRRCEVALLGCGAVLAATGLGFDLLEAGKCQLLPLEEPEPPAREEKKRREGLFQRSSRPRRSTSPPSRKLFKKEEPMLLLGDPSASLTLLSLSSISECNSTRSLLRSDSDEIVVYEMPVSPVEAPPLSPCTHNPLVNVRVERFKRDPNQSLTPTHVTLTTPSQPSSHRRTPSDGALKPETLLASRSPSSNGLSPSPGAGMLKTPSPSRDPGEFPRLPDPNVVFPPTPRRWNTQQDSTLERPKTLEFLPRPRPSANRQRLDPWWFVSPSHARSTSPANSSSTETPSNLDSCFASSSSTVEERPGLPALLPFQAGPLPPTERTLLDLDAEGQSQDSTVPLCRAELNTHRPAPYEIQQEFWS
In test [19] the target is Calcium/calmodulin-dependent protein kinase type II subunit beta (Homo sapiens, UniProt Q13554). Nature of the test: Binding affinity to recombinant human full length N-terminal GST-tagged CAMK2B expressed in baculovirus expression system using GS peptide as substrate incubated for 1 hr in presence of calmodulin by TR-FRET assay.
Chain of Calcium/calmodulin-dependent protein kinase type II subunit beta (Q13554 whole entry, the tested form may be a part): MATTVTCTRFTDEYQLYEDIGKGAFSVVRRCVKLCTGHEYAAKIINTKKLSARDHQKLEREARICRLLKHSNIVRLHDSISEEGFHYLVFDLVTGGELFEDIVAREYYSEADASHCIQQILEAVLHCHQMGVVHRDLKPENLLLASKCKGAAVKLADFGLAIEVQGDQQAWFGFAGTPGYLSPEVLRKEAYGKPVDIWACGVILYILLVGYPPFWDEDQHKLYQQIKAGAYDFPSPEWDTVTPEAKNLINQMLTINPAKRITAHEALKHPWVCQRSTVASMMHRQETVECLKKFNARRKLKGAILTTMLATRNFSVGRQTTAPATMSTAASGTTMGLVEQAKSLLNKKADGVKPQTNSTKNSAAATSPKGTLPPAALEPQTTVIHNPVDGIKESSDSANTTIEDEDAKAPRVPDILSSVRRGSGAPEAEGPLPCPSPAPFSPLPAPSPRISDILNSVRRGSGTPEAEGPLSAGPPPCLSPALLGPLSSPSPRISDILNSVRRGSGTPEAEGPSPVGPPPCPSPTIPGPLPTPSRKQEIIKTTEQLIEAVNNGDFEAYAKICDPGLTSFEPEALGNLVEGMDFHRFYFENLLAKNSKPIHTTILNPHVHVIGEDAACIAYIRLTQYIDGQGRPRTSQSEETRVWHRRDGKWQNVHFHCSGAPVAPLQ
The target of test [20] is Mitogen-activated protein kinase kinase kinase kinase 1 (Homo sapiens, UniProt Q92918). Nature of the test: Binding affinity to recombinant N-terminal His-FLAG-GST-tagged MAP4K1 (unknown origin) (1 to 346 residues) expressed in baculovirus infected Sf9 insect cells incubated for 1 hr by TR-FRET assay.
Test [21] has as its target Rho-associated protein kinase 2 (Homo sapiens, UniProt O75116). Nature of the test: Binding affinity to recombinant full-length N-terminal His-FLAG-GST-tagged ROCK2 (unknown origin) (1 to 553 residues) expressed in baculovirus infected Sf9 insect cells incubated for 1 hr by TR-FRET assay.
For test [22], the target named is Mitogen-activated protein kinase 9 (Homo sapiens, UniProt P45984). Nature of the test: Binding affinity to recombinant full-length N-terminal His-FLAG-tagged MAPK9 (unknown origin) expressed in baculovirus infected Sf9 insect cells incubated for 1 hr by TR-FRET assay.

SMILES strings stand for the structures.

Chain of Protein kinase C zeta type (Q05513 whole entry): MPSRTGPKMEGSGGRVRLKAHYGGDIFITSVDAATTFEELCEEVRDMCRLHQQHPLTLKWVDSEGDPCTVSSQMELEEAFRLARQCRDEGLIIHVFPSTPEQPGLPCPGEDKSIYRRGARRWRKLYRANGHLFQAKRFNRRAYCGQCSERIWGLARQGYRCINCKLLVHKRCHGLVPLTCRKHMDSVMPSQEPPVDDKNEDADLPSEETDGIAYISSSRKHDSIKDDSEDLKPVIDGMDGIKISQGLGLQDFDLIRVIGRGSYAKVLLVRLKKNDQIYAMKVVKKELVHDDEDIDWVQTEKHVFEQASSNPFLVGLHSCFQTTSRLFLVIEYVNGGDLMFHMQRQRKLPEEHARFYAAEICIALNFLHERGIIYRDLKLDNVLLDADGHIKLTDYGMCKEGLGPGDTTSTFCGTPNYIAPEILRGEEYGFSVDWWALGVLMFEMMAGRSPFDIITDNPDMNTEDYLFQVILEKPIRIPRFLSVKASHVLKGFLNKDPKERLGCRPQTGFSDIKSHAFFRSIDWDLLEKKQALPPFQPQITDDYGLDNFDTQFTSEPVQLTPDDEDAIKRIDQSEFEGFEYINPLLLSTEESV

Take `CO[C@@H]1[C@H](NCCOCCOCCOCCNC(=O)CCC2=[N+]3C(=Cc4c(C)cc(C)n4[B-]3(F)F)C=C2)C[C@H]2O[C@]1(C)n1c3ccccc3c3c4c(c5c6ccccc6n2c5c31)C(=O)NC4`: the Kd in [1] is 18 nM; on Ephrin type-A receptor 3, 747 nM; in [2] it was 3 nM; in test [3], 148 nM; in test [4], 17 nM; in [5] it was 64 nM. The Kd was determined as 331 nM in [6]; 71 nM in test [7]; 63 nM in test [8]; 7 nM in test [9]; 601 nM in test [10]; 1250 nM in [11]. The Kd is 8 nM in test [12]; 28 nM in test [13]; 122 nM on Rhodopsin kinase GRK1; 328 nM on Myosin-IIIb; 34 nM in [14]; 5 nM in test [15]. For the same compound, the dissociation constant Kd in test [16] worked out at 35 nM; in test [17], 6 nM; in test [18] it was 2 nM; in test [19], 19 nM; in [20], 17 nM; in test [21], 23 nM.
Regarding `CO[C@@H]1[C@H](N(C)CCOCCOCCOCCNC(=O)CCC2=[N+]3C(=Cc4c(C)cc(C)n4[B-]3(F)F)C=C2)C[C@H]2O[C@]1(C)n1c3ccccc3c3c4c(c5c6ccccc6n2c5c31)C(=O)NC4`, the Kd in test [1] was found to be 19 nM; in [2], 3 nM; in test [3], 154 nM; in [4], 9 nM; in test [5] it was 66 nM; in test [6], 566 nM. Also, the Kd in test [7] was 72 nM; in test [8] it was 116 nM; in [9], 4 nM; in test [10] it was above 2000 nM; in [22], 745 nM; in [11], 1350 nM. Moreover, the Kd was found to be 9 nM in test [12]; 37 nM in [13]; 109 nM on Rhodopsin kinase GRK1; 294 nM on Myosin-IIIb; 60 nM in test [14]; 6 nM in test [15]. Also, the Kd was found to be 25 nM in test [16]; 3 nM in test [18]; 12 nM in [19]; 24 nM in test [20]; 16 nM in test [21].
